In patent publication US20250136555A1 (HARBIN MEDISAN PHARMACEUTICAL CO., LTD., priority 2022, published 2025):
Where two headings read alike, the source gives them in different places.

Experiments:
PPARα = target: T1, PPARα (Homo sapiens, UniProt Q07869); experiment: GAL4 hybrid reporter gene method, PPARα agonistic activity; format: cell-based; conditions: Cos-7 cells, Gal4-PPARα (LBD); GW7647 10 nM = 100%; 16 h
T1 construct: expressed in transfected cells; host or cells: COS-7
T1 sequence (Q07869 239-466 limits assumed): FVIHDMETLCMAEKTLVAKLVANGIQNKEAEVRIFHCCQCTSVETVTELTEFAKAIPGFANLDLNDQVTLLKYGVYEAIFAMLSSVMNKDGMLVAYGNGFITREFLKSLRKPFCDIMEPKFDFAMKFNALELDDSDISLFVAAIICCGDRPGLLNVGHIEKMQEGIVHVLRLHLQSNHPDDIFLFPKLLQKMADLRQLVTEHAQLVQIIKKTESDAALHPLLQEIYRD
Procedure: (§1) Cos-7 cells (African green monkey kidney fibroblasts, commonly used tool cells) were cultured in a 10-cm cell culture dish with a DMEM complete medium containing 10% fetal bovine serum. When growing at a density of about 70%, the cells were ready for transfection. […] The working solution described above was then combined with 8 mL of the DMEM complete medium, and the mixture was added to the cell culture dish for cell transfection. After 4 h of transfection, the cells were digested, resuspended, and seeded into a 96-well plate at 25,000 cells/well. […] 10 μL of a reporter gene detection solution (purchased from Shanghai Beyotime Biological Tech. Co., Ltd.) was added. After the resulting solution was mixed and reacted, biological fluorescence was detected by using a multifunctional microplate reader, and corresponding half maximal effective concentration (EC50) values were calculated according to the detection values. […] Transfection working solutions for different nuclear receptors were prepared and added into COS-7 cells. The preparation method for the transfection working solution was as follows: the constructed pBIND-Gal4-PPARα (LBD) (or pBIND-Gal4-PPARδ (LBD) plasmid or pBIND-Gal4-PPARγ (LBD) plasmid or pBIND-Gal4-RARα (LBD) plasmid or pBIND-Gal4-RARγ (LBD) plasmid or pBIND-Gal4-RARβ (LBD) plasmid or pBIND-Gal4-RORα (LBD) plasmid or pBIND-Gal4-RORγ (LBD) plasmid or pBIND-Gal4-RORβ (LBD) plasmid or pBIND-Gal4-FXR (LBD) plasmid or pBIND-Gal4-RXRα.

PPARδ = target: T2, PPARδ (Homo sapiens, UniProt Q03181); experiment: GAL4 hybrid reporter gene method, PPARδ agonistic activity; format: cell-based
T2 construct: expressed in transfected cells; host or cells: COS-7
T2 sequence (Q03181 211-439 limits assumed): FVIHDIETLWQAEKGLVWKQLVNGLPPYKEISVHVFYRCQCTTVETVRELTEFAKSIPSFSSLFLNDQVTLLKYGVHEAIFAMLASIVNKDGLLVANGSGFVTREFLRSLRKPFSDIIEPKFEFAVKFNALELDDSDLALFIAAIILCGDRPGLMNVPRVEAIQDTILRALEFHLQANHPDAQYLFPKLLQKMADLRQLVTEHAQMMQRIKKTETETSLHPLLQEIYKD
Procedure: as §1

PPARγ = target: T3, PPARγ (Homo sapiens, UniProt P37231); experiment: GAL4 hybrid reporter gene method, PPARγ agonistic activity; format: cell-based
T3 construct: expressed in transfected cells; host or cells: COS-7
T3 sequence (P37231 238-503 limits assumed): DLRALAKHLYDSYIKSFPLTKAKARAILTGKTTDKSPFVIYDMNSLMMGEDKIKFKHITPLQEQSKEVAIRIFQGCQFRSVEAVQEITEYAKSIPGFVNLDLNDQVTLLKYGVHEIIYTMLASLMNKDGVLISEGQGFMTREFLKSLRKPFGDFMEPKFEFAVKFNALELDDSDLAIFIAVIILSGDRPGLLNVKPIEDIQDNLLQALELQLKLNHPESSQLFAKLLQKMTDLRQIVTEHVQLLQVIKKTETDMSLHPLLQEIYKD
Procedure: as §1

[1] = Metabolic stability in human liver microsomes; format: in vitro ADME; conditions: human liver microsomes 0.75 mg/mL, NADPH
Procedure: A solution of the compound in acetonitrile at a concentration of 500 μM was prepared and diluted in 0.1 M potassium phosphate solution to obtain a 1.5 μM drug working solution. The drug working solution was co-incubated with a human liver microsome working solution at a final concentration of 0.75 mg/mL and a NADPH solution (at a final concentration of 550 μM), and the incubation was terminated by adding an acetonitrile solution at 0 min, 15 min, 30 min, 45 min, and 60 min, respectively. The remaining amount of the compound remained in the system at each time point was detected by using LC/MS, the absolute value k of the slope was measured by plotting the natural logarithm of the percentage of the remaining amount of the compound over time, and the calculation was performed according to the formula: T1/2 (half-life)=ln2/k=0.693/k.

[2] = NCT02704403; cited from earlier work
[3] = Cos-7 cells, Gal4-PPARδ (LBD), GW501516 10 nM = 100%, 16 h
[4] = Cos-7 cells, Gal4-PPARγ (LBD), Rosiglitazone 1 μM = 100%, 16 h

| SMILES | EC50 (PPARα) | EC50 (PPARδ) | EC50 (PPARγ) | further results |
| --- | --- | --- | --- | --- |
| CC(C)(Oc1c(F)cc(CN2C(=O)CN(c3ccc(C(F)(F)F)cc3)C2=O)cc1Cl)C(=O)O [Compound 47, 2-(2-Chloro-4-((2,5-dioxo-3-(4-(trifluoromethyl)phenyl)imidazolin-1-yl)methyl)-6-fluorophenoxy)-2-methylpropionic Acid] | 9.9 nM | 19 nM | > 5000 nM | – |
| CC(C)(Oc1ccc(CN2C(=O)CN(c3ccc(C(F)(F)F)cc3)C2=O)cc1Cl)C(=O)O [Compound 51, 2-(4-((2,5-Dioxo-3-(4-(trifluoromethyl)phenyl)imidazolin-1-yl)methyl)-2-chlorophenoxy)-2-methylpropionic Acid] | 89.9 nM | 40.1 nM | > 5000 nM | – |
| Cc1cc(CN2C(=O)CN(c3ccc(C(F)(F)F)cc3)C2=O)cc(C)c1OCC(=O)O [Compound 53, 2-(4-((2,5-Dioxo-3-(4-(trifluoromethyl)phenyl)imidazolin-1-yl)methyl)-2,6-dimethylphenoxy)acetic Acid] | 325 nM | – | > 5000 nM | EC50 (PPARδ; [3]): 175 nM |
| CC(C)(Oc1ccc(CN2C(=O)CN(c3ccc(C(F)(F)F)cc3)C2=O)cc1OC(F)(F)F)C(=O)O [Compound 55, 2-(4-((2,5-Dioxo-3-(4-(trifluoromethyl)phenyl)imidazolin-1-yl)methyl)-2-(trifluoromethoxy)phenoxy)-2-methylpropionic Acid] | 82.1 nM | 24 nM | 2960 nM | – |
| Cc1cc(CN2C(=O)CN(c3ccc(C(F)(F)F)cc3)C2=O)ccc1OC(C)(C)C(=O)O [Compound 57, 2-(4-((2,5-Dioxo-3-(4-(trifluoromethyl)phenyl)imidazolin-1-yl)methyl)-2-(methyl)phenoxy)-2-methylpropionic Acid] | 46.7 nM | – | – | EC50 (PPARδ; [3]): 19.2 nM; EC50 (PPARγ; [4]): 2720 nM |
| CC(C)(Oc1ccc(CN2C(=O)CN(c3ccc(C(F)(F)F)cc3)C2=O)cc1)C(=O)O [Compound 59, 2-(4-((2,5-Dioxo-3-(4-(trifluoromethyl)phenyl)imidazolin-1-yl)methyl)phenoxy)-2-methylpropionic Acid] | 277 nM | – | > 5000 nM | EC50 (PPARδ; [3]): 359 nM |
| CCC(Oc1c(C)cc(CN2C(=O)CN(c3ccc(C(F)(F)F)cc3)C2=O)cc1C)C(=O)O (stereo not shown) [Compound 67, 2-(4-((2,5-Dioxo-3-(4-(trifluoromethyl)phenyl)imidazolin-1-yl)methyl)-2,6-dimethylphenoxy)butyric Acid] | 14.1 nM | 3.4 nM | 1920 nM | – |
| Cc1cc(CN2C(=O)CN(c3ccc(S(C)(=O)=O)cc3)C2=O)cc(C)c1OC(C)(C)C(=O)O [Compound 71, 2-(2,6-Dimethyl-4-((3-(4-(methylsulfonyl)phenyl)-2,5-dioxoimidazolin-1-yl)methyl)phenoxy)-2-methylpropionic Acid] | 1090 nM | > 5000 nM | > 5000 nM | – |
| COc1cc(CN2C(=O)CN(c3ccc(C(F)(F)F)cc3)C2=O)cc(Cl)c1OC(C)(C)C(=O)O [Compound 73, 2-(2-Chloro-4-((2,5-dioxo-3-(4-(trifluoromethyl)phenyl)imidazolin-1-yl)methyl)-6-methoxyphenoxy)-2-methylpropionic Acid] | 2.4 nM | 31 nM | 2120 nM | – |
| CC(C)(Oc1ccc(CN2C(=O)CN(c3ccc(C(F)(F)F)cc3)C2=O)cc1Br)C(=O)O [Compound 77, 2-(2-Bromo-4-((2,5-dioxo-3-(4-trifluoromethyl)phenyl)imidazolidin-1-yl)methylphenoxy)-2-methylpropionic Acid] | 74.1 nM | 25.3 nM | 3190 nM | – |
| Cc1cc(CN2CC(=O)N(c3ccc(C(F)(F)F)cc3)C2=O)cc(C)c1OC(C)(C)C(=O)O [Compound 81, 2-(4-((2,4-Dioxo-3-(4-(trifluoromethyl)phenyl)imidazolidin-1-yl)methyl)-2,6-dimethylphenoxy)-2-methylpropionic Acid] | 165 nM | – | > 5000 nM | EC50 (PPARδ; [3]): 82.1 nM |
| Cc1cc(CN2C(=O)N(c3ccc(C(F)(F)F)cc3)C(=O)C2(C)C)cc(C)c1OC(C)(C)C(=O)O [Compound 83] | 79.3 nM | – | – | EC50 (PPARδ; [3]): 6.5 nM; EC50 (PPARγ; [4]): 1680 nM |
| Cc1cc(CCN2C(=O)CN(c3ccc(C(F)(F)F)cc3)C2=O)cc(C)c1OC(C)(C)C(=O)O [Compound 85, 2-(4-(2-(2,5-Dioxo-3-(4-(trifluoromethyl)phenyl)imidazolidin-1-yl)ethyl)-2,6-dimethylphenoxy)-2-methylpropionic Acid] | 17.9 nM | – | 2720 nM | EC50 (PPARδ; [3]): 4.4 nM |
| Cc1cc(CCN2CC(=O)N(c3ccc(C(F)(F)F)cc3)C2=O)cc(C)c1OC(C)(C)C(=O)O [Compound 87, 2-(4-(2-(2,4-Dioxo-3-(4-(trifluoromethyl)phenyl)imidazolin-1-yl)ethyl)-2,6-dimethylphenoxy)-2-methylpropionic Acid] | 353 nM | 352 nM | 3400 nM | – |
| Cc1cc(CCCN2C(=O)CN(c3ccc(C(F)(F)F)cc3)C2=O)cc(C)c1OC(C)(C)C(=O)O [Compound 89, 2-(4-(3-(2,5-Dioxo-3-(4-(trifluoromethyl)phenyl)imidazolidin-1-yl)propyl)-2,6-dimethylphenoxy)-2-methylpropionic Acid] | 67 nM | – | – | EC50 (PPARδ; [3]): 20.3 nM; EC50 (PPARγ; [4]): 628 nM |
| Cc1cc(CCCN2CC(=O)N(c3ccc(C(F)(F)F)cc3)C2=O)cc(C)c1OC(C)(C)C(=O)O [Compound 91, 2-(4-(3-(2,4-Dioxo-3-(4-(trifluoromethyl)phenyl)imidazolidin-1-yl)propyl)-2,6-dimethylphenoxy)-2-methylpropionic Acid] | 38 nM | 632 nM | 2690 nM | – |
| CCOc1ccc(N2CC(=O)N(Cc3cc(C)c(OC(C)(C)C(=O)O)c(C)c3)C2=O)cc1 [Compound 95] | 10.9 nM | 66.9 nM | 1330 nM | – |
| COc1cc(CN2C(=O)CN(c3ccc(C(F)(F)F)cc3)C2=O)ccc1OC(C)(C)C(=O)O [Compound 97] | 209 nM | 1400 nM | 2890 nM | – |
| Cc1cc(CN2C(=O)CN(c3ccc(C=O)cc3)C2=O)cc(C)c1OC(C)(C)C(=O)O [Compound 99] | 402 nM | > 5000 nM | > 5000 nM | – |
| Cc1cc(CN2C(=O)CN(c3ccc(C4CC4)cc3)C2=O)cc(C)c1OC(C)(C)C(=O)O [Compound 101] | 1 nM | 10.2 nM | 313 nM | PPARα EC50 (nM) (PPARα): low nanomolar levels; PPARδ EC50 (nM) (PPARδ; [3]): low nanomolar levels |
| Cc1cc(CN2C(=O)CN(c3cccc(F)c3)C2=O)cc(C)c1OC(C)(C)C(=O)O [Compound 103] | 102 nM | 97.6 nM | 474 nM | – |
| Cc1cc(CN2C(=O)CN(c3ccc(F)c(Cl)c3)C2=O)cc(C)c1OC(C)(C)C(=O)O [Compound 105] | 21.9 nM | 40.5 nM | 165 nM | – |
| Cc1cc(CN2C(=O)CN(c3cccc(Cl)c3)C2=O)cc(C)c1OC(C)(C)C(=O)O [Compound 107] | 105 nM | 47.5 nM | 652 nM | – |
| Cc1cc(CN2C(=O)CN(c3cccc(OC(F)(F)F)c3)C2=O)cc(C)c1OC(C)(C)C(=O)O [Compound 109] | 31.7 nM | 15.1 nM | 363 nM | – |
| CSc1ccc(C(=O)/C=C/c2cc(C)c(OC(C)(C)C(=O)O)c(C)c2)cc1 [GFT505, Elafibranor, reference compound] | 820 nM | – | – | EC50 (PPARγ; [4]): 1840 nM; CLint scaled [1]: 116 mL/min/kg; half-life [1]: 15 min; interim analysis result of phase III clinical trial against NASH [2]: substantially ineffective |
